# From patent US10774064B2 (Cadent Therapeutics, Inc., priority 2016, dated 2020)
# Target: T1, small-conductance Ca2+-activated K+ channels (SK channels, subtype 2) (Homo sapiens, UniProt Q9H2S1)
# T1 construct: expressed in transfected cells; host or cells: HEK293
# Experiment: whole-cell patch-clamp of ionic current through SK2 channels in HEK293 cells (SC100)
# Format: cell-based
# Conditions: whole-cell patch-clamp, HEK293 cells expressing SK2 channels; concentration that increases the basal current by 100%
# Summary of the method: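 SC100, the concentration doubling basal current (a 100% increase), was taken from SK2 currents recorded by whole-cell patch-clamp in SK2-expressing HEK293 cells.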
row,SC100 (μM),SMILES
1,++ (++ means 200 nM-1000 nM),CC(=O)N1CCCC(OCc2cc(NC3CCC(F)(F)CC3)nc(-n3ccc(C)n3)c2)C1 (stereo not drawn) [IN11067-003-P1]
2,++ (++ means 200 nM-1000 nM),COC(=O)N1CCCC(OCc2cc(NC3CCC(F)(F)CC3)nc(-n3ccc(C)n3)c2)C1 (stereo not drawn) [IN11067-004-P1]
3,+++ (+++ means <200 nM),"Cc1cc(C)n(-c2cc(OCc3ncco3)cc(NC3CCC(F)(F)CC3)n2)n1 [IN11067-023-P1, N-(4,4-difluorocyclohexyl)-6-(3,5-dimethyl-1H-pyrazol-1-yl)-4-(oxazol-2-ylmethoxy)pyridin-2-amine]"
4,++ (++ means 200 nM-1000 nM),COc1cc(NC2CCCCC2)nc(-c2nc(C)cs2)n1 [IN11067-035-P1]
5,+ (+ means >1 uM),"CSc1cc(NC2CCC(F)(F)CC2)nc(-n2nc(C)cc2C)n1 [IN11067-060-P1, N-(4,4-difluorocyclohexyl)-2-(3,5-dimethyl-1H-pyrazol-1-yl)-6-(methylthio)pyrimidin-4-amine]"
6,+ (+ means >1 uM),Cc1cc(C)n(-c2nc(NC3CCC(F)(F)CC3)cc(S(C)(=O)=O)n2)n1 [IN11067-061-P1]
7,+ (+ means >1 uM),Cc1cc(C)n(-c2nc(NC3CCC(F)(F)CC3)cc([S+](C)[O-])n2)n1 (stereo not drawn) [IN11067-062-P1]
8,+ (+ means >1 uM),COc1cc(NC2CCC(F)CC2)nc(-c2nc(C)cs2)n1 (stereo not drawn) [IN11067-072-P1]
9,+ (+ means >1 uM),Cc1csc(-c2nc(NC3CCC(F)(F)CC3)cc(OC3CCOCC3)n2)n1 [IN11079-007-P1]
10,++ (++ means 200 nM-1000 nM),"FC1(F)CCC(Nc2cc(N3CCOCC3)nc(-n3ccc(C(F)(F)F)n3)n2)CC1 [IN11079-009-P1, N-(4,4-difluorocyclohexyl)-6-morpholino-2-(3-(trifluoromethyl)-1H-pyrazol-1-yl)pyrimidin-4-amine]"
11,+ (+ means >1 uM),Cc1csc(-c2nc(NC3CCC(F)(F)CC3)cc(OC3CCOC3)n2)n1 (stereo not drawn) [IN11079-014-P1]
12,++ (++ means 200 nM-1000 nM),Cc1csc(-c2nc(NC3CCC(F)(F)CC3)cc(OC3COC3)n2)n1 [IN11079-033-P1]
13,+ (+ means >1 uM),"CCOc1ccn(-c2nc(C)cc(NC3CCC(F)(F)CC3)n2)n1 [IN11079-040-P1, N-(4,4-difluorocyclohexyl)-2-(3-ethoxy-1H-pyrazol-1-yl)-6-methylpyrimidin-4-amine]"
14,+ (+ means >1 uM),"Cc1csc(-c2cnc(NC3CCC(F)(F)CC3)c(C)n2)n1 [IN11079-047-P1, N-(4,4-difluorocyclohexyl)-3-methyl-5-(4-methylthiazol-2-yl) pyrazin-2-amine]"
15,+ (+ means >1 uM),"Cc1cc(NC2CCC(F)(F)CC2)nc(-n2ccc(OCc3ccccc3)n2)n1 [IN11079-066-P1, 2-(3-(benzyloxy)-1H-pyrazol-1-yl)-N-(4,4-difluorocyclohexyl)-6-methyl pyrimidin-4-amine]"
16,+ (+ means >1 uM),"Cc1cc(NC2CCC(F)(F)CC2)nc(-n2ccc(=O)[nH]2)n1 [IN11079-067-P1, 1-(4-((4,4-difluorocyclohexyl)amino)-6-methylpyrimidin-2-yl)-1H-pyrazol-3-ol]"
17,+ (+ means >1 uM),COc1cc(NC2CCSCC2)nc(-c2nc(C)cs2)n1 [IN11079-072-P1]
18,+ (+ means >1 uM),Cc1ccn(-c2cc(CN3CCCOC3=O)cc(NC3CCC(F)(F)CC3)n2)n1 [IN11083-014-P1]
19,+++ (+++ means <200 nM),"Cc1csc(-c2cc(NC(=O)OC(C)(C)C)cc(NC3CCC(F)(F)CC3)n2)n1 [IN11083-048-P1, tert-butyl (2-((4,4-difluorocyclohexyl)amino)-6-(4-methylthiazol-2-yl)pyridin-4-yl) carbamate]"
20,+ (+ means >1 uM),"COc1c(NC2CCC(F)(F)CC2)nc(-c2nc(C)cs2)nc1C(C)O (stereo not drawn) [IN11104-039-P1, 1-(6-((4,4-difluorocyclohexyl)amino)-5-methoxy-2-(4-methylthiazol-2-yl)pyrimidin-4-yl)ethan-1-ol]"
21,++ (++ means 200 nM-1000 nM),COC(=O)NCCOc1nc(-c2nc(C)cs2)nc(NC2CCC(F)(F)CC2)c1OC [IN11104-041-P1]
22,+ (+ means >1 uM),"CC(=O)c1cc(NC2CCC(F)(F)CC2)cc(-c2nc(C)cs2)c1 [IN11104-059-P1, 1-(3-((4,4-difluorocyclohexyl)amino)-5-(4-methylthiazol-2-yl)phenyl) ethan-1-one]"
23,+ (+ means >1 uM),"Cc1csc(-c2cc(NC3CCC(F)(F)CC3)cc(C(C)O)c2)n1 (stereo not drawn) [IN11104-077-P1, 1-(3-((4,4-difluorocyclohexyl)amino)-5-(4-methylthiazol-2-yl)phenyl) ethan-1-ol]"
24,+ (+ means >1 uM),COc1cc(NC2CCC3(CC2)COC3)nc(-c2nc(C)cs2)n1 [IN11104-084-P2]
25,+ (+ means >1 uM),"CC(=O)c1cc(N2CCOCC2)cc(NC2CCC(F)(F)CC2)n1 [IN11104-090-P1, 1-(6-((4,4-difluorocyclohexyl)amino)-4-morpholinopyridin-2-yl) ethan-1-one]"

row,SC100 (μM),SMILES
1,++ (++ means 200 nM-1000 nM),"Cc1csc(-c2nc(NC3CCC(F)(F)CC3)cc(C(C)C#N)n2)n1 (stereo not drawn) [IN11104-094-P1, 2-(6-((4,4-difluorocyclohexyl)amino)-2-(4-methylthiazol-2-yl)pyrimidin-4-yl) propanenitrile]"
2,+ (+ means >1 uM),"Cc1nccc(-c2cc(N3CCOCC3)cc(NC3CCC(F)(F)CC3)n2)n1 [IN11104-095-P1, N-(4,4-difluorocyclohexyl)-6-(2-methylpyrimidin-4-yl)-4-morpholinopyridin-2-amine]"
3,+ (+ means >1 uM),"COC(C)c1cc(N(C)C2CCC(F)(F)CC2)nc(-n2ccc(C3CC3)n2)n1 (stereo not drawn) [IN11104-100-P1, 2-(3-cyclopropyl-1H-pyrazol-1-yl)-N-(4,4-difluorocyclohexyl)-6-(1-methoxyethyl)-N-methylpyrimidin-4-amine]"
4,+ (+ means >1 uM),COc1cc(NC2CCOCC2)nc(-c2nc(C)cs2)n1 [IN11106-004-P1]
5,+ (+ means >1 uM),COc1cc(NC2CCCOC2)nc(-c2nc(C)cs2)n1 (stereo not drawn) [IN11106-027-P1]
6,+ (+ means >1 uM),COc1cc(NC2CCC3(CC2)CC3)nc(-c2nc(C)cs2)n1 [IN11106-033-P1]
7,+++ (+++ means <200 nM),"Cc1cc(NC2CCC(F)(F)CC2)nc(-n2ccc(C3CC3)n2)c1 [IN11106-062-P1, 6-(3-cyclopropyl-1H-pyrazol-1-yl)-N-(4,4-difluorocyclohexyl)-4-methylpyridin-2-amine]"
8,+ (+ means >1 uM),Cn1cnc(COc2cc(NC3CCC(F)(F)CC3)nc(-n3ccc(C4CC4)n3)n2)n1 [IN11106-066-P1]
9,++ (++ means 200 nM-1000 nM),"Cc1csc(-c2nc(C)c(F)c(NC3CCC(F)(F)CC3)n2)n1 [IN11106-077-P1, N-(4,4-difluorocyclohexyl)-5-fluoro-6-methyl-2-(4-methylthiazol-2-yl)pyrimidin-4-amine]"
10,++ (++ means 200 nM-1000 nM),Cc1ccn(-c2nc(NC3CCC(F)(F)CC3)cc(N3CCNC(=O)C3)n2)n1 [IN11106-091-P1]
11,+ (+ means >1 uM),Cc1ccn(-c2nc(NC3CC(F)(F)C3)cc(N3CCOCC3)n2)n1 [IN11107-020-P1]
12,+ (+ means >1 uM),COc1cc(NCCC(C)(F)F)nc(-c2nc(C)cs2)n1 [IN11107-021-P1]
13,+ (+ means >1 uM),COc1cc(NCCCC(C)(F)F)nc(-c2nc(C)cs2)n1 [IN11107-023-P1]
14,+ (+ means >1 uM),COc1cc(NC2CC(F)(F)C2)nc(-n2nc(C)cc2C)n1 [IN11108-018-P1]
15,+ (+ means >1 uM),Cc1cc(C)n(-c2nc(NC3CC(F)(F)C3)cc(N3CCOCC3)n2)n1 [IN11108-019-P1]
16,+ (+ means >1 uM),"COCc1cc(NC2CC(F)(F)C2)nc(-n2nc(C)cc2C)n1 [IN11108-038-P1, N-(3,3-difluorocyclobutyl)-2-(3,5-dimethyl-1H-pyrazol-1-yl)-6-(methoxymethyl)pyrimidin-4-amine]"
17,+ (+ means >1 uM),COc1cc(NC2CCC2)nc(-c2nc(C)cs2)n1 [IN11111-003-P1]
18,++ (++ means 200 nM-1000 nM),COc1c(NC2CCC(F)(F)CC2)nc(-c2nc(C)cs2)nc1OCc1cnco1 [IN11111-021-P1]
19,+ (+ means >1 uM),COc1c(NC2CCC(F)(F)CC2)nc(-c2nc(C)cs2)nc1OCCO [IN11111-023-P1]
20,+ (+ means >1 uM),"Cc1cccc(-c2cc(CO)cc(NC3CCC(F)(F)CC3)n2)n1 [IN11111-063-P1, (6-((4,4-difluorocyclohexyl)amino)-6′-methyl-[2,2′-bipyridin]-4-yl)methanol]"
21,++ (++ means 200 nM-1000 nM),OCc1cc(NC2CCC(F)(F)CC2)nc(-n2ccc(C3CC3)n2)c1 [IN11111-092-P1]
22,++ (++ means 200 nM-1000 nM),Cc1ccn(-c2nc(NC3CCC(F)(F)CC3)cc(N3CCCOCC3)n2)n1 [IN11111-097-P1]
23,++ (++ means 200 nM-1000 nM),"Cc1ccn(-c2nc(NC3CCC(F)(F)CC3)c(F)c(N3CCOCC3)n2)n1 [IN11111-100-P1, N-(4,4-difluorocyclohexyl)-5-fluoro-2-(3-methyl-1H-pyrazol-1-yl)-6-morpholinopyrimidin-4-amine]"
24,+ (+ means >1 uM),"CCOc1cc(NC2CCC(F)(F)CC2)nc(-n2nc(C)cc2C)n1 [IN11121-042-P1, N-(4,4-difluorocyclohexyl)-2-(3,5-dimethyl-1H-pyrazol-1-yl)-6-ethoxypyrimidin-4-amine]"
25,+ (+ means >1 uM),COc1c(NC2CCC(F)(F)CC2)nc(-c2nc(C)cs2)nc1N1CCOCC1 [IN11125-001-P1]

row,SMILES,SC100 (μM)
1,"CNC(=O)Oc1c(NC2CCC(F)(F)CC2)nc(-c2nc(C)cs2)nc1OC [IN11106-065-P1, 4-((4,4-difluorocyclohexyl)amino)-6-methoxy-2-(4-methylthiazol-2-yl)pyrimidin-5-yl methylcarbamate]",+ (+ means >1 uM)
